The test concerns the target T1, METTL3/14 (Homo sapiens, UniProt Q86U44).
T1 construct: The enzyme used was full-length his-tagged METTL3; His; made in house
The experiment in a line: METTL3/14 methyltransferase assay (METTL3_14 RFMS, RapidFire mass spectrometry).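 Further: recombinant His-tagged METTL3 with FLAG-tagged METTL14 from baculovirus, SAH product quantified by mass spectrometry against isotope-labelled internal standards, 60 min at room temperature, scaled between no-RNA and DMSO-only wells.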 It counts as biochemical. To be noted: read-out: METTL3_14 RFMS IC50.

The mark [1] stands for this setting: 5 nM METTL3/14, 0.2 μM RNA substrate, 0.5 μM SAM, lower limit of the assay IC50=5 nM, Compounds 63-265.
[2] abbreviates: 5 nM METTL3/14, 0.2 μM RNA substrate, 0.5 μM SAM, lower limit of the assay IC50=5 nM, Compounds 266-351.
The mark [3] stands for this setting: 5 nM METTL3/14, 0.2 μM RNA substrate, 0.5 μM SAM, lower limit of the assay IC50=5 nM, Compounds 1-62.

Molecules are shown by their SMILES. Where a name gives a salt, the structure may show the parent alone. Read-outs that look alike come from different tables or passages of the source.

The term IC50 denotes the point on the concentration scale where inhibition reaches its midpoint.

T1 sequence (Q86U44 whole entry): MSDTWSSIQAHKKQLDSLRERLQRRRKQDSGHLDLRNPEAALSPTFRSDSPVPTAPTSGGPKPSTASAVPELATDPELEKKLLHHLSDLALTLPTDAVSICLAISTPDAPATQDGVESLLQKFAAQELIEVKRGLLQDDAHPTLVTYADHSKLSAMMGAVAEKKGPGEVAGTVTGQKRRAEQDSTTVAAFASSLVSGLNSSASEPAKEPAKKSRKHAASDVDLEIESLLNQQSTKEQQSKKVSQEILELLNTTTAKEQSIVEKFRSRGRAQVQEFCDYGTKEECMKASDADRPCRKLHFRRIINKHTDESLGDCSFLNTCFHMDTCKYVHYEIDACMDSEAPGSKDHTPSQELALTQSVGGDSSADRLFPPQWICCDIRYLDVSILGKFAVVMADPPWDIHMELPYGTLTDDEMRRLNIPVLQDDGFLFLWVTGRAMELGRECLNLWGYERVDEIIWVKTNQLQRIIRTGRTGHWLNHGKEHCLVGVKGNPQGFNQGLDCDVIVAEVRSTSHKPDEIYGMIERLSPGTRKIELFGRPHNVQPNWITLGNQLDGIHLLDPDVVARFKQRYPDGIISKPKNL
T1 sequence (Q9HCE5 whole entry partner): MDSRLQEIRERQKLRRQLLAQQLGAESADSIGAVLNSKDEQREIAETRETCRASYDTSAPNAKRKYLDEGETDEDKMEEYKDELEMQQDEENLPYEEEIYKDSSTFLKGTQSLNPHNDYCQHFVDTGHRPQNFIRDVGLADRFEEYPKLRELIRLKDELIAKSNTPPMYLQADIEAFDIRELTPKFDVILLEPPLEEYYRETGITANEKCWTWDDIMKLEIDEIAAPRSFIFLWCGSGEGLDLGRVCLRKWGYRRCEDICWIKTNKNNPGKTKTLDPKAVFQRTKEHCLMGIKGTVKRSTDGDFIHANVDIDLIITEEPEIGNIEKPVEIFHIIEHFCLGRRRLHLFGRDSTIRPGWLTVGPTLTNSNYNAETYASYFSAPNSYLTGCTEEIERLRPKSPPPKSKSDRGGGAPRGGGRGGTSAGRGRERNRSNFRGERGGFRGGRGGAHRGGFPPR

Consider `COc1ccc(CNCc2ccc3nc(CNC(=O)c4cc(=O)n5ccccc5n4)cn3c2)cc1` [Compound 71, N-{[6-({[(4-methoxyphenyl)methyl]amino}methyl)imidazo [1,2-a]pyridin-2-yl]methyl}-4-oxo-4H-pyrido [1,2-a]pyrimidine-2-carboxamide], for which, under setting [1], the IC50 was 206 nM.

On to `O=C(NCc1cn2cc([C@H]3COC[C@@H](C4CCCCC4)N3)ccc2n1)c1cc(=O)c2ccccc2o1` [Example 264, N-({6-[(3S,5R)-5-cyclohexylmorpholin-3-yl]imidazo[1,2-a]pyridin-2-yl}methyl)-4-oxo-4H-chromene-2-carboxamide], for which the IC50 under setting [1] is 195 nM.

Turning to `CC(C)(C)C1CCC(NCc2ccc3nc(CNC(=O)c4cc(=O)n5ccccc5n4)cn3c2)CC1` (centres unmarked) [Compound 162, N-[(6-{[(4-tert-butylcyclohexyl)amino]methyl}imidazo[1,2-a]pyridin-2-yl)methyl]-4-oxo-4H-pyrido[1,2-a] pyrimidine-2-carboxamide], under setting [1], the IC50 came out at 225 nM.

For the molecule `CC(C)(C)CNCc1ccc2nc(Cn3cc(-c4cc(C5CC5)cc5[nH]ncc45)nn3)cn2c1` [Example 321, N-[[2-[[4-(6-cyclopropyl-1H-indazol-4-yl)triazol-1-yl]methyl]imidazo[1,2-a]pyridin-6-yl]methyl]-2,2-dimethyl-propan-1-amine], the concentration for half-maximal inhibition (IC50) under setting [2] amounted to 13.2 nM.

As to `CC(C)(C)C(=O)N1CCN(Cc2ccc3nc(CNC(=O)c4cc(=O)n5ccccc5n4)cn3c2)CC1` [Compound 166, N-[(6-{[4-(2,2-dimethylpropanoyl)piperazin-1-yl]methyl}imidazo[1,2-a]pyridin-2-yl)methyl]-4-oxo-4H-pyrido [1,2-a]pyrimidine-2-carboxamide], the IC50 under setting [1] is 10500 nM.

Turning to `Cc1ccc2nc(COC(=O)c3cccc4[nH]ncc34)cn2c1` [Compound 41, {6-methylimidazo[1,2-a]pyridin-2-yl}methyl 1H-indazole-4-carboxylate hydrochloride], the IC50 under setting [3] came to 1340 nM.

`COc1ccc2nc(CNC(=O)c3cc(=O)n4ccccc4n3)cn2c1` [Compound 24, N-({6-methoxyimidazo[1,2-a]pyridin-2-yl}methyl)-4-oxo-4H-pyrido[1,2-a]pyrimidine-2-carboxamide]: under setting [3], the IC50 came out at 6770 nM.

With `C=Cc1ccc2nc(CNC(=O)c3cc(=O)n4ccccc4n3)cn2c1` [Compound 58, N-({6-ethenylimidazo[1,2-a]pyridin-2-yl}methyl)-4-oxo-4H-pyrido[1,2-a]pyrimidine-2-carboxamide], under setting [3], the IC50 came to 299 nM.

In the case of `O=C(NCc1cn2cc(CN3CC4CCC3C4)ccc2n1)c1cc(=O)n2ccccc2n1` (centres unmarked) [Compound 350, N-{[6-({2-azabicyclo[2.2.1]heptan-2-yl}methyl)imidazo[1,2-a]pyridin-2-yl]methyl}-4-oxo-4H-pyrido[1,2-a]pyrimidine-2-carboxamide], the IC50 under setting [2] worked out at 56.2 nM.

Take `O=C(NCc1cn2ccccc2n1)c1cc(=O)c2ccccc2o1` [Compound 13]: under setting [3], the IC50 was 4180 nM.

On to `CC(C)(C)CCNCc1ccc2nc(CNC(=O)c3cc(=O)n4ccccc4n3)cn2c1` [Compound 93, N-[(6-{[(3,3-dimethylbutyl)amino]methyl}imidazo[1,2-a]pyridin-2-yl)methyl]-4-oxo-4H-pyrido[1,2-a] pyrimidine-2-carboxamide], for which, under setting [1], the IC50 turned out to be 13 nM.

For `O=C(NCc1cn2ccc(Br)cc2n1)c1cccc2[nH]ncc12` [Compound 2, N-({7-bromoimidazo[1,2-a]pyridin-2-yl}methyl)-1H-indazole-4-carboxamide], under setting [3], the IC50 turned out to be 9840 nM.

In the case of `CC1(CNCc2ccc3nc(CNC(=O)c4cc(=O)n5ccccc5n4)cn3c2)CCCCC1` [Compound 106, N-{[6-({[(1-methylcyclohexyl)methyl]amino}methyl)imidazo [1,2-a]pyridin-2-yl]methyl}-4-oxo-4H-pyrido [1,2-a]pyrimidine-2-carboxamide], the IC50 under setting [1] worked out at 15 nM.

With `CC(C)(C)OC(=O)NCCc1ccc2nc(CNC(=O)c3cc(=O)n4ccccc4n3)cn2c1` [Compound 67, tert-butyl N-(2-{2-[({4-oxo-4H-pyrido[1,2-a]pyrimidin-2-yl}formamido)methyl]imidazo [1,2-a]pyridin-6-yllethyl) carbamate], the IC50 under setting [1] was 8140 nM.

Consider `O=C(NCc1cn2cc(CN3CCC(Cc4ccccc4)CC3)ccc2n1)c1cc(=O)n2ccccc2n1` [Compound 155, N-({6-[(4-benzylpiperidin-1-yl)methyl]imidazo[1,2-a]pyridin-2-yl}methyl)-4-oxo-4H-pyrido [1,2-a]pyrimidine-2-carboxamide], for which the IC50 under setting [1] is 177 nM.

For `CC1(NCc2ccc3nc(CNC(=O)c4cc(=O)n5ccccc5n4)cn3c2)CCCC1` [Compound 148, N-[(6-{[(1-methylcyclopentyl)amino]methyl}imidazo[1,2-a]pyridin-2-yl)methyl]-4-oxo-4H-pyrido [1,2-a]pyrimidine-2-carboxamide], the IC50 under setting [1] was 28.5 nM.

Consider `O=C(NCc1cn2cc(COCc3ccccc3)ccc2n1)c1cc(=O)n2ccccc2n1` [Compound 177], for which the IC50 under setting [1] is 1890 nM.

Turning to `Cn1cnc(CNc2ccc3nc(CNC(=O)c4cccc5[nH]ncc45)cn3c2)c1` [Compound 33, N-[(6-{[(1-methyl-1H-imidazol-4-yl)methyl]amino}imidazo[1,2a]pyridin-2-yl)methyl]-1H-indazole-4-carboxamide], the half-maximal inhibitory concentration (IC50) under setting [3] came out at 5870 nM.

As to `O=C(NCc1cn2cc(CNC[C@H]3CCCO3)ccc2n1)c1cc(=O)n2ccccc2n1` [Compound 118, 4-oxo-N-({6-[({[(2R)-oxolan-2-yl]methyl}amino)methyl]imidazo[1,2-a]pyridin-2-yl}methyl)-4H-pyrido[1,2-a]pyrimidine-2-carboxamide], the IC50 under setting [1] came to 87.2 nM.

As to `O=C(NCc1cn2cc(CNCc3ccc(Cl)cc3)ccc2n1)c1cc(=O)n2ccccc2n1` [Compound 73, N-{[6-({[(4-chlorophenyl)methyl]amino}methyl)imidazo [1,2-a]pyridin-2-yl]methyl}-4-oxo-4H-pyrido [1,2-a]pyrimidine-2-carboxamide], the IC50 is 64.9 nM.

Regarding `O=C(NCc1cn2cc(CN3CCNCC3)ccc2n1)c1cccc2[nH]ncc12` [Compound 38, N-({6-[(piperazin-1-yl)methyl]imidazo[1,2-a]pyridin-2-yl}methyl)-1H-indazole-4-carboxamide], the IC50 under setting [3] came to 5440 nM.

For the molecule `O=C(NCc1cn2cc(F)ccc2n1)c1cccc2[nH]ncc12` [Compound 6, N-({6-fluoroimidazo[1,2-a]pyridin-2-yl}methyl)-1H-indazole-4-carboxamide], the IC50 under setting [3] stood at 9120 nM.

On to `O=C(NCc1cn2cc(CNCC3CCCCC3)ccc2n1)c1cc(=O)c2ccccc2o1` [Compound 170, N-[(6-{[(cyclohexylmethyl)amino]methyl}imidazo[1,2-a]pyridin-2-yl)methyl]-4-oxo-4H-chromene-2-carboxamide], for which the IC50 under setting [1] amounted to 29.4 nM.

As to `NC1(CNCc2ccc3nc(Cn4cc(-c5ccc(F)c6[nH]ncc56)nn4)cn3c2)CCCC1` [Example 309, 1-[[[2-[[4-(7-fluoro-1H-indazol-4-yl)triazol-1-yl]methyl]imidazo[1,2-a]pyridin-6-yl]methylamino]methyl]cyclopentanamine], under setting [2], the IC50 turned out to be 120 nM.

Consider `O=C(NCc1cn2cc(CNCC(F)(F)F)ccc2n1)c1cc(=O)n2ccccc2n1` [Compound 51, 4-oxo-N-[(6-{[(2,2,2-trifluoroethyl)amino]methyl}imidazo[1,2-a]pyridin-2-yl)methyl]-4H-pyrido[1,2-a]pyrimidine-2-carboxamide], for which the IC50 under setting [3] amounted to 1220 nM.

With `C[C@H](NCc1ccc2nc(CNC(=O)c3cc(=O)n4ccccc4n3)cn2c1)C(C)(C)C` [Compound 215, N-{[6-({[(2S)-3,3-dimethylbutan-2-yl]amino}methyl)imidazo[1,2-a]pyridin-2-yl]methyl}-4-oxo-4H-pyrido [1,2-a]pyrimidine-2-carboxamide], the IC50 under setting [1] is 54.3 nM.

With `CN(CCC1CC1)Cc1ccc2nc(CNC(=O)c3cc(=O)n4ccccc4n3)cn2c1` [Compound 204, N-[(6-{[(2-cyclopropylethyl) (methyl)amino]methyl}imidazo [1,2-a]pyridin-2-yl)methyl]-4-oxo-4H-pyrido [1,2-a]pyrimidine-2-carboxamide], under setting [1], the IC50 is 61.5 nM.

As to `O=C(NCc1cn2cc(CNCC3CCCCC3)ccc2n1)c1cccc2[nH]ncc12` [Compound 182, N-[(6-{[(cyclohexyl-methyl)amino]methyl}imidazo[1,2-a]pyridin-2-yl)methyl]-1H-indazole-4-carboxamide], the IC50 under setting [1] worked out at 179 nM.

As to `O=C(NCc1cn2cc(CNCC3CCCCC3)ccc2n1)c1cc(=O)c2cc(Cl)ccc2o1` [Compound 172, 6-chloro-N-[(6-{[(cyclohexylmethyl)amino]methyl}imidazo[1,2-a]pyridin-2-yl)methyl]-4-oxo-4H-chromene-2-carboxamide], the IC50 under setting [1] was found to be 309 nM.

In the case of `O=C(NCc1cn2cc(CNC[C@@H]3CCCO3)ccc2n1)c1cc(=O)n2ccccc2n1` [Compound 117, 4-oxo-N-({6-[({[(2S)-oxolan-2-yl]methyl}amino)methyl]imidazo[1,2-a]pyridin-2-yl}methyl)-4H-pyrido[1,2-a] pyrimidine-2-carboxamide], the IC50 under setting [1] was found to be 83.7 nM.

Take `O=C(NCc1cn2cc(CNCC(F)(F)F)ccc2n1)c1cccc2[nH]ncc12` [Compound 46, N-[(6-{[(2,2,2-trifluoroethyl)amino]methyl}imidazo[1,2-a]pyridin-yl)methyl]-1H-indazole-4-carboxamide]: the IC50 under setting [3] is 2210 nM.

As to `O=C(NCc1cn2cc(CNc3ccc(Cl)cc3)ccc2n1)c1cc(=O)n2ccccc2n1` [Compound 153, N-[(6-{[(4-chlorophenyl)amino]methyl}imidazo[1,2-a]pyridin-2-yl)methyl]-4-oxo-4H-pyrido[1,2-a] pyrimidine-2-carboxamide], under setting [1], the IC50 worked out at 1580 nM.

Values taken from patent publication US12358915B2, “METTL3 inhibitory compounds” (STORM THERAPEUTICS LTD., priority 2019, dated 2025).
